The target in the test is T1, MC4R (Homo sapiens, UniProt P32245).
T1 construct: expressed in transfected cells; host or cells: HEK293 (transient transfection, pcDNA3_MC4R plus CRE-luciferase reporter pGL4.29)
Nature of the test: cAMP reporter gene assay. Format: cell-based. The conditions noted are these: normalized to maximal setmelanotide response; n ≥ 2. (In general: Reporter assays use an easily measured gene product as a stand-in for the process of interest.)

T1 sequence (P32245 whole entry, species assumed): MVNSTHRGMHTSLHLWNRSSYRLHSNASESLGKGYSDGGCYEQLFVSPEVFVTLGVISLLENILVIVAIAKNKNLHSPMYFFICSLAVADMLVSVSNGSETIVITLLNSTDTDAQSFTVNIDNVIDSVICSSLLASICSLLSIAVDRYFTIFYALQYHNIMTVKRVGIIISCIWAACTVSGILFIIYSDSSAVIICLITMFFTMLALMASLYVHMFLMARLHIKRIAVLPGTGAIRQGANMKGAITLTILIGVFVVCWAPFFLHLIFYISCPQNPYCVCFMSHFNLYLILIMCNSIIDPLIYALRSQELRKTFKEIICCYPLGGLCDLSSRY
Description: HEK293 cells were cultured under standard conditions.[33] Cyclic adenosine monophosphate (cAMP) reporter gene assay was carried out with HEK293 cells transiently transfected with pGL4.29[luc2P/CRE/Hygro] (Promega, Madison, WI, USA) and pcDNA3_MC4R plasmids. For transfection, a master mix consisting of 0.6 µL Lipofectamine (Invitrogen by Thermo Fisher) per 25 µL Opti-MEM (Gibco, Grand Island, NY, USA) per well was preincubated at room temperature for 5 min and then gently mixed with 0.125 µg of both plasmids per 25 µL Opti-MEM per well and incubated for 30 min at room temperature. […] Two hundred microlitres of the mixture was added per well to a white 96-well plate (Greiner Bio-One International GmbH, Kremsmünster, Austria), previously coated with 0.1 mg/mL poly-D-lysine (Sigma-Aldrich) in Dulbecco’s phosphate-buffered saline (DPBS) for 1 h at room temperature. Cells were incubated overnight at humidified atmosphere (37°C, 5% CO2). […] The medium was removed, and cells were starved in 50 μL of DMEM/F12 (1:1) without FBS at humidified atmosphere for 1 h. One millimolar peptide stocks in dimethyl sulfoxide (DMSO, Sigma-Aldrich) were diluted in DMEM/F12 (1:1) to desired concentrations. […] The plate was transferred to a plate reader (Infinite M200, Tecan Trading AG, Männedorf, Switzerland), briefly shaken and incubated 5 min at room temperature. […]

One may read the Emax as the size of the effect at its maximum, as opposed to the concentration needed. The compound `CC(=O)N[C@@H](CCCNC(=N)N)C(=O)N[C@H]1CSSC[C@@H](C(N)=O)NC(=O)[C@H](Cc2c[nH]c3ccccc23)NC(=O)[C@H](CCCNC(=N)N)NC(=O)[C@@H](Cc2ccccc2)NC(=O)[C@H](Cc2c[nH]cn2)NC(=O)[C@@H](C)NC1=O` [peptide 1.1, Ac-R^bCaHfRW^bC-NH2] showed an Emax of 100 ± 4%.

Values taken from paper PMC12820429, “Modulating food intake by nasal application of peptides targeting melanocortin 4 receptor and ghrelin receptor systems” (Brain Communications, 2026).
